tested on: pig oocyte ZP; assay: Landscape phage library selection on pig oocytes with intact zona pellucida, after negative selection on cat, dog and cow oocytes; format: binding; conditions: 9-mer peptides displayed on landscape phage
Experimental: Using a strategy similar to the strategy of Example 2, 9-mer peptides that bind specifically to pig oocyte ZP were identified using a landscape phage library. In this library, foreign (non-phage) 9-mer peptides are expressed in each pVIII copy over the phage surface resulting in thousands of peptide copies per phage particle. […] Prior to phage display library selection on pig oocytes, negative selection steps on cat, dog and cow oocytes were performed. Sequences of the identified peptides are DPGLSLGDD (SEQ ID NO:41); AYNLGEGDT (SEQ ID NO:42); GQQGLNGDS (SEQ ID NO:43); DVGGGTGTE (SEQ ID NO:44); GPNSSDADS (SEQ ID NO:45); and GEGGYGSHD (SEQ ID NO:46).

Sequence | binding to pig ZP
AYNLGEGDT (Phage library random peptide insert) [SEQ ID NO:42] | specifically recognize and bind to pig ZP
DPGLSLGDD (Phage library random peptide insert) [SEQ ID NO:41] | specifically recognize and bind to pig ZP
DVGGGTGTE (Phage library random peptide insert) [SEQ ID NO:44] | specifically recognize and bind to pig ZP
GPNSSDADS (Phage library random peptide insert) [SEQ ID NO:45] | specifically recognize and bind to pig ZP
GQQGLNGDS (Phage library random peptide insert) [SEQ ID NO:43] | specifically recognize and bind to pig ZP
GEGGYGSHD (Phage library random peptide insert) [SEQ ID NO:46] | specifically recognize and bind to pig ZP

tested on: dog oocyte ZP; assay: Landscape phage library selection on dog oocytes with intact zona pellucida; format: binding; conditions: 9-mer peptides displayed on landscape phage
From the text: Using a strategy similar to the strategy of Examples 2 and 5, 9-mer peptides that bind to dog oocyte ZP were identified using a landscape phage library. In this library, foreign (non-phage) 9-mer peptides are expressed in each pVIII copy over the phage surface resulting in thousands of peptide copies per phage particle. […] Sequences of the identified peptides are DDLNSFVND (SEQ ID NO:47); ADLAAFYDD (SEQ ID NO:48); EPGGMVGSD (SEQ ID NO:49); DGVYLVGDD (SEQ ID NO:50); DWSGQDVEN (SEQ ID NO:51); and GMVGSGYDS (SEQ ID NO:52).

Sequence | binding to dog ZP
ADLAAFYDD (Phage library random peptide insert) [SEQ ID NO:48] | specifically recognize and bind to dog ZP
DWSGQDVEN (Phage library random peptide insert) [SEQ ID NO:51] | specifically recognize and bind to dog ZP
GMVGSGYDS (Phage library random peptide insert) [SEQ ID NO:52] | specifically recognize and bind to dog ZP
EPGGMVGSD (Phage library random peptide insert) [SEQ ID NO:49] | specifically recognize and bind to dog ZP
DGVYLVGDD (Phage library random peptide insert) [SEQ ID NO:50] | specifically recognize and bind to dog ZP
DDLNSFVND (Phage library random peptide insert) [SEQ ID NO:47] | specifically recognize and bind to dog ZP

tested on: cat oocyte ZP; assay: Landscape phage library selection on cat oocytes with intact zona pellucida; format: binding; conditions: 9-mer peptides displayed on landscape phage
From the text: Using a strategy similar to the strategy of Examples 2, 5, and 7, 9-mer peptides that bind to cat oocyte ZP were identified using a landscape phage library. In this library, foreign (non-phage) 9-mer peptides are expressed in each pVIII copy over the phage surface resulting in thousands of peptide copies per phage particle. […] Sequences of the identified peptides are AGSSYTQDS (SEQ ID NO:53); EVNGGSADS (SEQ ID NO:54); EAYPGLDWD (SEQ ID NO:55); and VKSEDPSLN (SEQ ID NO:56).

Sequence | binding to cat ZP
EAYPGLDWD (Phage library random peptide insert) [SEQ ID NO:55] | specifically recognize and bind to cat ZP
AGSSYTQDS (Phage library random peptide insert) [SEQ ID NO:53] | specifically recognize and bind to cat ZP
VKSEDPSLN (Phage library random peptide insert) [SEQ ID NO:56] | specifically recognize and bind to cat ZP
EVNGGSADS (Phage library random peptide insert) [SEQ ID NO:54] | specifically recognize and bind to cat ZP
